# In patent US10913728B2, “O-substituted hydroxamic acids” (The Johns Hopkins University, priority 2016, dated 2021):
# Marks after values point to notes of the source that are not given here.
# Assays:
# [1] = 1H NMR protocol: decomposition of the compounds and relative product yields in aqueous solution; format: physicochemical; conditions: for Carboxylic Acid relative product yield / NHPY relative product yield / PY (corresponding pyrazolone) relative product yield: decomposition in aqueous solution, 1H NMR
# From the text: A ^1H NMR spectroscopy protocol was used to examine the decomposition of the compounds of the disclosure and measure the relative product yields in aqueous solution (Guthrie, D. A.; Ho, A.; Takahashi, C. G.; Collins, A.; Morris, M.; Toscano, J. P. J. Org. Chem. 2015, 80, 1338-1348; and Guthrie, D. A.; Nourian, S.; Takahashi, C. G.; Toscano, J. P. J. Org. Chem. 2015, 80, 1349-1356).
# [2] = UV-Vis protocol: decomposition kinetics, donor half-lives at pH 7.4 and 37° C.; format: physicochemical; conditions: buffer, pH 7.4, 37° C.
# Description: A UV-VIS protocol was used to determine the decomposition kinetics of Compounds 1-5. According to this protocol, decomposition of the test compound was monitored by UV-Vis spectroscopy to measure donor half-lives at pH 7.4 and 37° C. (Guthrie, D. A.; Kim, N. Y.; Siegler, M. A.: Moore, C. D.; Toscano, J. P. J. Am. Chem. Soc. 2012, 134, 1962-1965; and Guthrie, D. A.; Ho, A.; Takahashi, C. G.; Collins, A.; Morris, M.; Toscano, J. P. J. Org. Chem. 2015, 80, 1338-1348).
# [3] = 1H NMR mechanistic study: decomposition of Compound 1 in the presence of 3,4-dimethyl-1-phenylpyrazolone (PY-2); format: physicochemical; conditions: 0.5 mM compound with 0.5 mM PY-2, 0.25 M phosphate buffer, 0.2 mM DTPA, pH 7.4, 37° C., argon
# Description: A ^1H NMR Spectroscopy Protocol was used to confirm the formation of nitroso carbonyls following decomposition of Compound 1. In this protocol, 0.5 mM Compound 1 was incubated in the presence of 0.5 mM 3,4-dimethyl-1-phenylpyrazolone in 0.25 M phosphate buffer with 0.2 mM DTPA at pH 7.4, 80% H2O, 10% D2O, and 10% DMSO-d6 at 37° C. under argon. Spectra were collected at the start of the experiment and after complete decomposition.
# [4] = Nitroxyl production via N2O quantification in the headspace (GC), relative to Angeli's salt standard; format: physicochemical; set-up: key to % HNO: Stable; conditions: for % HNO: N2O yield relative to AS standard, phosphate buffer with DTPA, 37° C.
# From the text: Nitrous oxide (N2O) is produced via the dimerization and dehydration of HNO, and is the most common marker for nitroxyl production (Fukuto et al., Chem. Res. Toxicol. 18:790-801 (2005)). […] Using either nitrous oxide gas or Angeli's salt (“AS”) as a standard, the relative amounts of N2O released from compounds of the disclosure is examined via gas chromatography (“GC”) headspace analysis.
# Another procedure for determining N2O released from compounds of the disclosure is as follows. A Varian CP-3800 instrument equipped with a 1041 injector, electron capture detector, and a 25 m 5 Å molecular sieve capillary column was applied for the analysis of nitrous oxide (N2O). Grade 5.0 nitrogen was used as both the carrier (8 mL/min) and the make-up (22 mL/min) gas. For all measurements, the column oven temperature was kept constant at 150° C., and the injector oven and the detector oven were held at 200° C. and 300° C., respectively. A 100 μL gastight syringe with a sample-lock was used for all gas injections. Samples were prepared in 6 mL Wheaton Clr headspace vials with volumes pre-measured for sample uniformity (actual vial volume ranges from 5.8-6.3 mL). Vials were charged with 3 mL of phosphate buffer containing the metal chelator, diethylenetriaminepentaacetic acid (DTPA), and fit with rubber septa and 20 mm aluminum seals. The vials were purged with argon and equilibrated for at least 10 minutes at 37° C. in a dry block heater. A stock solution of Angeli's salt (AS) was prepared in 10 mM sodium hydroxide, and compounds of the disclosure (10 mM) were prepared in acetonitrile and used immediately after preparation. 30 μL of the stock solutions was transferred into vials using a gastight syringe, yielding final concentrations of 0.5, 0.1, and 0.02 mM. Substrates were then incubated long enough to ensure complete decomposition and equilibration of N2O with the headspace. Depending on the concentration of the compound of the disclosure, 60 or 20 μL of the headspace was sampled and injected three times using a gastight syringe with a sample lock. The N2O yield was averaged and reported relative to the AS standard.
# [5] = Stability of NHPY-1 incubated with PY-2 by 1H NMR spectroscopy; format: physicochemical; conditions: 1H NMR spectroscopy at pH 7.4 and 10
# From the text: Based on reactivity studies of bis-heteroatom-substituted amides (Glover, S. A. In The Chemistry of Hydroxylamines, Oximes, and Hydroxamic Acids, Part 2; Rappoport, Z., Liebman, J. F., Eds.; John Wiley & Sons: Chichester, West Sussex, 2009, p 839-923), the formation of NHPY-1 may be possible through the direct attack of PY-2 on the amide nitrogen of the hydroxamic acid moiety of […] (Scheme 4).
# [6] = cited from earlier work
SMILES,Carboxylic Acid relative product yield [1],NHPY relative product yield [1],PY (corresponding pyrazolone) relative product yield [1],NHPY-1 yield from decomposition of Compound 1 ([1]; in the absence of PY-2),acetate yield from decomposition of Compound 1 ([1]; in the absence of PY-2),half-life ([2]; UV-Vis spectroscopy),formation of NHPY-1 upon decomposition [3],formation of NHPY-1 upon decomposition ([3]; listed as Compound I),% HNO ([4]; 20 μM compound),% HNO ([4]; 100 μM compound),% HNO ([4]; 500 μM compound),HNO yield from decomposition of Compound 1 ([4]; in the absence of PY-2),half-life [2],stability on incubation with PY-2 [5],pKa [6]
"CO/N=C(\C)C1(ONC(C)=O)C(=O)N(c2ccccc2)N=C1C (stereo not drawn) [Compound 1, N-((4-(1-(methoxyimino)ethyl)-3-methyl-5-oxo-1-phenyl-4,5-dihydro-1H-pyrazol-4-yl)oxy)acetamide]",73,26,74,26%,73%,25 min,not formed,quantitative,91%,75%,70%,70%,,,
"CC(=O)NOC1(C)C(=O)N(c2ccccc2)N=C1C (stereo not drawn) [Compound 2, N-((3,4-dimethyl-5-oxo-1-phenyl-4,5-dihydro-1H-pyrazol-4-yl)oxy)acetamide]",,,,,,,,,a,a,a,,,,
"CO/N=C(\C)C1(ONC(=O)OC)C(=O)N(c2ccccc2)N=C1C (stereo not drawn) [Compound 3, methyl (4-(1-(methoxyimino)ethyl)-3-methyl-5-oxo-1-phenyl-4,5-dihydro-1H-pyrazol-4-yl)oxycarbamate]",27,72,28,,,,,,41%,29%,20%,,0.6 min,,
"CO/N=C(\C)C1(ONC(=O)OC)C(=O)N(C)N=C1C (stereo not drawn) [Compound 4, methyl (4-(1-(methoxyimino)ethyl)-1,3-dimethyl-5-oxo-4,5-dihydro-1H-pyrazol-4-yl)oxycarbamate]",14,86,14,,,1.2 min,,,29%,17%,8%,,,,
"CO/N=C(\C)C1(ONC(=O)OC(C)(C)C)C(=O)N(c2ccccc2)N=C1C (stereo not drawn) [Compound 5, tert-butyl (4-(1-(methoxyimino)ethyl)-3-methyl-5-oxo-1-phenyl-4,5-dihydro-1H-pyrazol-4-yl)oxycarbamate]",,,,,,,,,35^c %,26%,,,,,
"CON=C(C)C1(N(O)C(C)=O)C(=O)N(c2ccccc2)N=C1C (stereo not drawn) [NHPY-1, N-hydroxy-N-(4-(1-(methoxyimino)ethyl)-3-methyl-5-oxo-1-phenyl-4,5-dihydro-1H-pyrazol-4-yl)acetamide]",,,,,,,,,,,,,,stability was confirmed,10.0
